Structures can show the parent of a compound that is named as a salt.
Tests used:
anesthetised pigs = test: Haemodynamic effects on anesthetised pigs; format: in vivo, pigs ("German land" race); conditions: pigs, 10,0 mg/kg i.d.
Experimental: Haemodynamic effects of the compounds according to the invention on anesthetised pigs or dogs
Pigs are of "German land" race (20-26 kg) and are used after fasting overnight.
In the case of pigs, sedation, analgesia and anesthesia are induced by ketamine HCl (20 mg/kg i.m.), methonidate HCl (10 mg/kg i.m.), xylacine HCl (3 mg/kg i.m.) and sodium pentobarbitol (25-30 mg/kg as bolus i.v. or 0.16 mg/kg/min as i.v. perfusion).
The pigs or dogs are placed under artificial respiration in ambient air. Analysis of the blood gases (pO2, pCO2) is carried out at regular intervals and oxygen can be supplied via the respirator, if necessary.
The haemodynamic parameters recorded include the left ventricular pressure (LVP; Millar PC350 Tip catheter inserted via the carotid artery), systemic blood pressure (BPs, BPd; full catheter in a femoral artery), the end pressure of the left ventricular diastole (LVEDP), the ventricular contractility (LVPdp/dtmax) and the heart rate (HR).
The haemodynamic variables are recorded continuously for 1 to 3 hours, as a function of the period of action of the compound.
The effects of the compounds studied are shown as the absolute difference with respect to the base value (bv) measured before administration of the compounds and are shown in Table VII (a,b,c).
An antianginal activity is estimated by a fall in the BPs and the LVEDP (fall in venous return).

thoracic aorta = test: Vasorelaxant effect on isolated vessels (rat thoracic aorta rings without endothelium, precontracted with noradrenalin); design: species or system Wistar rats; conditions: for Emax: Rattus norvegicus, maximum inhibition of noradrenalin effect, 10^-8 to 10^-4 M substance, read-out: Maximum Relaxation; for IC50: rat aorta, 10^-7 M noradrenalin contraction
In short: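 Endothelium-denuded thoracic aorta rings from Wistar rats, held in Krebs-Ringer buffer (pH 7.4, 37 °C, 95% O2/5% CO2) under isometric tension and precontracted with 10^-7 M noradrenalin, received cumulative compound (10^-8 to 10^-4 M). Maximum relaxation given as percent; IC50 calculated when relaxation exceeded 50%.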

[1] = system: isolated pulmonary vessel; test: Relaxant activity on blood vessels isolated from guinea pigs (pulmonary artery); conditions: Cavia porcellus; guinea pig pulmonary artery, K+ depolarised, Ca2+ contraction; read-out: IC50 (relaxation of 50%)
Experimental: Determination of the relaxant activity of the compounds according to the invention on blood vessels isolated from guinea pigs.
The pulmonary artery of male guinea pigs (350-500 g) is isolated and cut into spiral tracts (1 mm wide, 15 mm long). […] After having removed the calcium from the tissues (Tyrode without calcium and 0.2 mM EDTA), the tracts are depolarised in the presence of a concentrated solution of K^+ ions (40 mM), which is produced by replacing the NaCl by equimolar amounts of KCl, and a contraction of long duration is then induced by Ca^2+ ions (0.5 mM).
The compounds studied are then introduced into the organ cell in increasing concentrations.
Each compound is tested on at least four vessel spiral tracts.

anesthetised dogs = test: Haemodynamic effects on anesthetised dogs; format: in vivo, dogs (labrador/harrier cross); conditions: dogs
In short: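 Anaesthetised labrador/harrier dogs (16–26 kg; pentobarbital induction then 8 mg/kg/h i.v. infusion, artificial respiration) given compound i.d. or i.v. after ~45 min equilibration. LVP, systolic/diastolic BP, LVEDP, LVdP/dtmax and HR recorded continuously 1–3 h; values are absolute change from pre-dose baseline.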

| SMILES | BPs (min), period of action (anesthetised pigs) [min] | BPs, difference to base value (anesthetised pigs) [mmHg] | LVRDP (min), period of action (anesthetised pigs) [min] | LVRDP, difference to base value (anesthetised pigs) | Emax (thoracic aorta) [%] | IC50 (thoracic aorta) [µM] | other results |
| --- | --- | --- | --- | --- | --- | --- | --- |
| CC1(C)SC[C@@H](C(=O)N[C@H]2CO[C@H]3[C@@H]2OC[C@@H]3O[N+](=O)[O-])N1C=O [Compound 31, 5-[[(3-Formyl-2,2-dimethyl-4-L-thiazolidinyl)carbonyl]amino]-5-deoxy-2-O-nitro-1,4:3,6-dianhydro-L-iditol monohydrochloride] | > 60 | -15 | > 60 | -2,0 mmHg | 83 | 25 |  |
| CC(=O)NCSC[C@H](NC(=O)OC(C)(C)C)C(=O)N[C@H]1CO[C@H]2[C@@H]1OC[C@@H]2O[N+](=O)[O-] [Compound 33, S-[(Acetylamino)methyl]-N-[(t-butoxy)carbonyl]-L-cysteine amide of 5-amino-5-deoxy-2-O-nitro-1,4:3,6-dianhydro-L-iditol] | > 60 | -12 | > 60 | -3,0 mmHg | 50 | > 100 |  |
| CC(=O)NCSC[C@H](N)C(=O)N[C@H]1CO[C@H]2[C@@H]1OC[C@@H]2O[N+](=O)[O-] [Compound 34, S-[(Acetylamino)methyl]-L-cysteine amide of 5-amino-5-deoxy-2-O-nitro-1,4:3,6-dianhydro-L-iditol monohydrochloride] | > 180 | -22 | > 180 | -4,0 mmHg | 25 | > 100 |  |
| O=C(CNC(=O)c1ccccc1SCc1ccccc1)N[C@H]1CO[C@H]2[C@@H]1OC[C@@H]2O[N+](=O)[O-] [Compound 47, 5-[[[[2-[(Phenylmethyl)thio]benzoyl]amino]-1-oxoethyl]amino]-5-deoxy-2-O-nitro-1,4:3,6-dianhydro-L-iditol] | > 120 | -10 | > 90 | -1,0 mmHg |  |  | IC50 [1]: 2 µM |
| CC(C)(C)OC(=O)N1CSC[C@H]1C(=O)NCC(=O)O[C@H]1CO[C@H]2[C@@H]1OC[C@H]2O[N+](=O)[O-] [Compound 72, 2-O-[2-[[(3-t-butoxycarbonyl-4-L-thiazolidinyl)carbonyl]amino]-1-oxoethyl]-5-O-nitro-1,4:3,6-dianhydro-D-glucitol] |  |  |  |  | 67 | 64 | BPs (min), period of action (anesthetised dogs; 10 mg/kg i.v.): 0 min; BPs, difference to base value (anesthetised dogs; 10 mg/kg i.v.): 0 mmHg; LVEDP (min), period of action (anesthetised dogs; 10 mg/kg i.v.): 0 min; LVEDP, difference to base value (anesthetised dogs; 10 mg/kg i.v.): 0,0 mmHg |
| O=C(CNC(=O)[C@@H]1CSCN1)O[C@H]1CO[C@H]2[C@@H]1OC[C@H]2O[N+](=O)[O-] [Compound 73, 2-O-[2-[[(4-L-thiazolidinyl)carbonyl]amino]-1-oxoethyl]-5-O-nitro-1,4:3,6-dianhydro-D-glucitol monohydrochloride] |  |  |  |  | 66 | 53 | BPs (min), period of action (anesthetised dogs; 3 mg/kg i.v.): 60 min; BPs, difference to base value (anesthetised dogs; 3 mg/kg i.v.): -15 mmHg; LVEDP (min), period of action (anesthetised dogs; 3 mg/kg i.v.): 60 min; LVEDP, difference to base value (anesthetised dogs; 3 mg/kg i.v.): -2,0 mmHg |
| CC(C)(C)OC(=O)N1CSC[C@H]1C(=O)N1CSC[C@H]1C(=O)N[C@H]1CO[C@H]2[C@@H]1OC[C@@H]2O[N+](=O)[O-] [Compound 77, 5-[[[(4R)-N-[(3-t-butoxycarbonyl-4-L-thiazolidinyl)carbonyl]-4-thiazolidinyl]carbonyl]amino]-5-deoxy-2-O-nitro-1,4:3,6-dianhydro-L-iditol] |  |  |  |  | 97 | 40 | BPs (min), period of action (anesthetised dogs; 3 mg/kg i.d.): > 180 min; BPs, difference to base value (anesthetised dogs; 3 mg/kg i.d.): -35 mmHg; LVEDP (min), period of action (anesthetised dogs; 3 mg/kg i.d.): > 180 min; LVEDP, difference to base value (anesthetised dogs; 3 mg/kg i.d.): -2,0 mmHg |
| O=C(N[C@H]1CO[C@H]2[C@@H]1OC[C@@H]2O[N+](=O)[O-])[C@@H]1CSCN1C(=O)[C@@H]1CSCN1 [Compound 78, 5-[[[(4R)-N-[(4-L-thiazolidinyl)carbonyl]-4-thiazolidinyl]carbonyl]amino]-5-deoxy-2-O-nitro-1,4:3,6-dianhydro-L-iditol monohydrochloride] |  |  |  |  | 89 | 20 | BPs (min), period of action (anesthetised dogs; 3 mg/kg i.d.): 150 min; BPs, difference to base value (anesthetised dogs; 3 mg/kg i.d.): -13 mmHg; LVEDP (min), period of action (anesthetised dogs; 3 mg/kg i.d.): 90 min; LVEDP, difference to base value (anesthetised dogs; 3 mg/kg i.d.): -1,0 mmHg |
